Experimental findings from article PMC6407917, “Identification of GSK3186899/DDD853651 as a Preclinical Development Candidate for the Treatment of Visceral Leishmaniasis” (Journal of Medicinal Chemistry, 2018) are described below.

A value given as a limit tells only on which side of the number the result lay.

Some targets named below: ADK (Homo sapiens, UniProt P55263); CDC42BPA (Homo sapiens, UniProt Q5VT25); CHEK1 (Homo sapiens, UniProt O14757); EPHA5 (Homo sapiens, UniProt P54756); EPHB4 (Homo sapiens, UniProt P54760); HIPK3 (Homo sapiens, UniProt Q9H422); LCK (Homo sapiens, UniProt P06239); MAP3K11 (Homo sapiens, UniProt Q16584); MAP4K5 (Homo sapiens, UniProt Q9Y4K4); MAPKAPK5 (Homo sapiens, UniProt Q8IW41); MARK2 (Homo sapiens, UniProt Q7KZI7); MAST3 (Homo sapiens, UniProt O60307); NTRK1 (Homo sapiens, UniProt P04629); PKN1 (Homo sapiens, UniProt Q16512); PRKCZ (Homo sapiens, UniProt Q05513); PRKD3 (Homo sapiens, UniProt O94806); PRKDC (Homo sapiens, UniProt P78527); RPS6KA5 (Homo sapiens, UniProt O75582); SLK (Homo sapiens, UniProt Q9H2G2); TEC (Homo sapiens, UniProt P42680); TP53RK (Homo sapiens, UniProt Q96S44).

Common to all, as to assay: biochemical
Holding throughout (set-up): species or system HEK293/K-562/placenta mixed human extract; Kinobeads chemoproteomic competition binding, quantified by TMT LC-MS/MS, dose response up to 20 uM

PRKDC, sequence (P78527 whole entry): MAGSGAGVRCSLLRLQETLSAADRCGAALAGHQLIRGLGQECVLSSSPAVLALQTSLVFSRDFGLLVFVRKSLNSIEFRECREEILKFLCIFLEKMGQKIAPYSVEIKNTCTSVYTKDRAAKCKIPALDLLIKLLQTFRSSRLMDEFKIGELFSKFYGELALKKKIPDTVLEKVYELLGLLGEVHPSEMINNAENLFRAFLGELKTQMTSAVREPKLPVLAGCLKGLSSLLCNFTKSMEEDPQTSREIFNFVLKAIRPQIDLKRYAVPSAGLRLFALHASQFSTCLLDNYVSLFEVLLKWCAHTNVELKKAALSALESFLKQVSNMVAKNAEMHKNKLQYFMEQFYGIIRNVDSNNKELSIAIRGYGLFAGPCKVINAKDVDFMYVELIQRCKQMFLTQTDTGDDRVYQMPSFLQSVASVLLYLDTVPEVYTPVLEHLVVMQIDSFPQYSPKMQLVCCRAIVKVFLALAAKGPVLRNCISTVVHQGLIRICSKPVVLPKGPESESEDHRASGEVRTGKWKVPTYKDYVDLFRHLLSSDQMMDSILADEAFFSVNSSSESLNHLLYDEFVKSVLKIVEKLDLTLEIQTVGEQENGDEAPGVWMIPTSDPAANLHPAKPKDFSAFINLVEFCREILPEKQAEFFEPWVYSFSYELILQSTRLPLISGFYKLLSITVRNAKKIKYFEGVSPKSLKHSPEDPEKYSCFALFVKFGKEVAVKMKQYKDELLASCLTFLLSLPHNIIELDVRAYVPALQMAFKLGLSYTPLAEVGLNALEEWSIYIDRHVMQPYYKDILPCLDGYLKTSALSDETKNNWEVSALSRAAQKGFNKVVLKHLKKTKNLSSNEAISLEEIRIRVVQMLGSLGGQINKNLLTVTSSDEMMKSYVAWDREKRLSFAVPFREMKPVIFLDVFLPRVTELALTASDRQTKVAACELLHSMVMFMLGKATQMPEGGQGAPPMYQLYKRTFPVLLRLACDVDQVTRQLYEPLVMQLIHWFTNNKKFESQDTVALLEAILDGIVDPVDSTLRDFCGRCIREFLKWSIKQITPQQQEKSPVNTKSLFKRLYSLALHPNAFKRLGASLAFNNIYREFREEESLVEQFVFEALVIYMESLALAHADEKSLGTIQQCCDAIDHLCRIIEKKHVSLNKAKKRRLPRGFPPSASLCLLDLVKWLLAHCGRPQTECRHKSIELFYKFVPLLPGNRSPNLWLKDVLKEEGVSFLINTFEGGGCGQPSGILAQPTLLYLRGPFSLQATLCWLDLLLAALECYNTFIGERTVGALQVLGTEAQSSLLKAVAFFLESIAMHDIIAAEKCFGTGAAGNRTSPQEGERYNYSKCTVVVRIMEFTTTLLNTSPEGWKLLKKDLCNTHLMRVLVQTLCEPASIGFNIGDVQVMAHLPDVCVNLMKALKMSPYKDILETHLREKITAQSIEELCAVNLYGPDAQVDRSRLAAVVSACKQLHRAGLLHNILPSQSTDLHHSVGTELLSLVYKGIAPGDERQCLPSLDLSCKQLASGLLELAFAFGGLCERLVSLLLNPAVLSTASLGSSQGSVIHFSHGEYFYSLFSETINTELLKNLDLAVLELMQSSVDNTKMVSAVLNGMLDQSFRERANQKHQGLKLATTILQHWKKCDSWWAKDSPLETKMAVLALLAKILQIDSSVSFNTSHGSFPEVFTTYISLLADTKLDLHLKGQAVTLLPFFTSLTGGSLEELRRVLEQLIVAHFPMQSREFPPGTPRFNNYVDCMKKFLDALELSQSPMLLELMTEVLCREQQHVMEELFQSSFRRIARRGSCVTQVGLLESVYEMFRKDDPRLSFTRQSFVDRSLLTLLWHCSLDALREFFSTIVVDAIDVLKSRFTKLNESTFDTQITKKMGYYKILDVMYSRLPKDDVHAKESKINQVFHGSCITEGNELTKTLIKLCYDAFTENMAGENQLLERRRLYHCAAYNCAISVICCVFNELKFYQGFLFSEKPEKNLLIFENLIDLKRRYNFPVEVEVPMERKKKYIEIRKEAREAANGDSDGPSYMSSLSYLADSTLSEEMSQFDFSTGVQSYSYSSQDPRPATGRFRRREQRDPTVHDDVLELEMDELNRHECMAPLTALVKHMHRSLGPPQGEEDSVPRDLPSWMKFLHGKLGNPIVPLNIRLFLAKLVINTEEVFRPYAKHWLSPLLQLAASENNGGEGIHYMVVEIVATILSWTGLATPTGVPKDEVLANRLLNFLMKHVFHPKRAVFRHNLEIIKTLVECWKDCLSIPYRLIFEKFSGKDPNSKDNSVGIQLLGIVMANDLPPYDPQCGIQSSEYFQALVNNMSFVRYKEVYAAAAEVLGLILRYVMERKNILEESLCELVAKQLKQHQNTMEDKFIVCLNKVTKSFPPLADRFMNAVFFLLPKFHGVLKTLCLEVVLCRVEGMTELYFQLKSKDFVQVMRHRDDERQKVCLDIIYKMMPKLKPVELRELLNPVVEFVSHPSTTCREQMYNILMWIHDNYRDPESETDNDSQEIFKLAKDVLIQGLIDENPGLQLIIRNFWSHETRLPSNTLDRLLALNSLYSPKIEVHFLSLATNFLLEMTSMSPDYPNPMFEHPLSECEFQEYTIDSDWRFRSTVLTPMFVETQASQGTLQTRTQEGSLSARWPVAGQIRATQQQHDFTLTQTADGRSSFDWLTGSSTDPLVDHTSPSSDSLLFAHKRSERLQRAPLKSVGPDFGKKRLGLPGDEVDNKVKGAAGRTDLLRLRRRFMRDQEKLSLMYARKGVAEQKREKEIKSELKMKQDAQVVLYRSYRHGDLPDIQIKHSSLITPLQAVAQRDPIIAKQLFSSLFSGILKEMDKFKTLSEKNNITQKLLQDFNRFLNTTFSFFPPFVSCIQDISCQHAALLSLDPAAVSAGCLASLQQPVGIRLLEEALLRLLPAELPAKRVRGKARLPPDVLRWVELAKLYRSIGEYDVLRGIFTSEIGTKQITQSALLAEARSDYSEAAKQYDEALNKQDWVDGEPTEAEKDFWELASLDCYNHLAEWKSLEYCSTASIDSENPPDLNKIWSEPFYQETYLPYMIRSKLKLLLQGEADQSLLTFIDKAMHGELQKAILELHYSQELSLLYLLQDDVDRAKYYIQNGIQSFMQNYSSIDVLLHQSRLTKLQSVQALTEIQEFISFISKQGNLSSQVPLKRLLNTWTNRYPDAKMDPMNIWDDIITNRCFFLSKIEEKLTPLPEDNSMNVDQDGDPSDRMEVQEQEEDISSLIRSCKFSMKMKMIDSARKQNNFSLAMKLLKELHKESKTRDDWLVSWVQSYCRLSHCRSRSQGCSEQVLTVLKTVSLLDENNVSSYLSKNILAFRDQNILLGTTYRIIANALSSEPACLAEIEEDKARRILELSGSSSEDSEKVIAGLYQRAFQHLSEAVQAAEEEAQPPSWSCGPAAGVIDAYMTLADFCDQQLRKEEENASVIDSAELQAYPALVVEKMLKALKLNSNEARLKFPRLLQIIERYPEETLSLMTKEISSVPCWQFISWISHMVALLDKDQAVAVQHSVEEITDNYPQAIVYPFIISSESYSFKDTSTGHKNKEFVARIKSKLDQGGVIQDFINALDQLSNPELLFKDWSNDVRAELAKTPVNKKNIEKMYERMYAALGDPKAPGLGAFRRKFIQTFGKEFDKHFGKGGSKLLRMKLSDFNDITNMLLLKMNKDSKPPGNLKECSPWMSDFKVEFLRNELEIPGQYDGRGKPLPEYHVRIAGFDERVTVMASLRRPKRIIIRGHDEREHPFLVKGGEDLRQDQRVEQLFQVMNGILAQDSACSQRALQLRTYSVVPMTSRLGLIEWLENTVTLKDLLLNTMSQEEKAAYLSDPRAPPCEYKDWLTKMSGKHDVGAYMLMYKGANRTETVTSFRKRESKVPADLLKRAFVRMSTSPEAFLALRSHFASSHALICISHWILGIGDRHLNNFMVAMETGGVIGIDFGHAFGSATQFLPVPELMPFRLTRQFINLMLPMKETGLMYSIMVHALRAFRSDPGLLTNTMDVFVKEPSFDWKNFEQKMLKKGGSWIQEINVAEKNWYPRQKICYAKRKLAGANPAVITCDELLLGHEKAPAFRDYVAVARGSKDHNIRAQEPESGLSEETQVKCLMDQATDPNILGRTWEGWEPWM
MARK2, sequence (Q7KZI7 whole entry): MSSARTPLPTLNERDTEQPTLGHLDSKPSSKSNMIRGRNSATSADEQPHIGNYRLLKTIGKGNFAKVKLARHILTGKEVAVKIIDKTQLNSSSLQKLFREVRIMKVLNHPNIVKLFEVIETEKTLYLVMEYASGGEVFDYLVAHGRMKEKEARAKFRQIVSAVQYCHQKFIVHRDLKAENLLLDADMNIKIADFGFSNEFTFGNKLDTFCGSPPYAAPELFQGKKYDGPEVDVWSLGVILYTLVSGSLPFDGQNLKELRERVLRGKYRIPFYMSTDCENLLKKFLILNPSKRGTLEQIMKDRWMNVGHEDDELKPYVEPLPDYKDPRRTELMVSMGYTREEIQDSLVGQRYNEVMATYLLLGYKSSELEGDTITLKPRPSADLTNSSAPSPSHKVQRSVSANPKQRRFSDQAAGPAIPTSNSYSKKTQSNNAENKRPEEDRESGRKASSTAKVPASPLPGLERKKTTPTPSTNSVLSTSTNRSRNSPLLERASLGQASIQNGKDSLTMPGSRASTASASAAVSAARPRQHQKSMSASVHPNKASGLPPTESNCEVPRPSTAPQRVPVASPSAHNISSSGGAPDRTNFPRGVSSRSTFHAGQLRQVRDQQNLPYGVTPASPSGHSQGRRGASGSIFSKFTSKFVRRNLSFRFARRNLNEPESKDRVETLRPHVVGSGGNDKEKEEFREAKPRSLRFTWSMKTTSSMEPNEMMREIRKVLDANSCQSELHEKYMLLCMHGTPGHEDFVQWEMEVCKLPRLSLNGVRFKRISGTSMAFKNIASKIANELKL
TP53RK, sequence (Q96S44 whole entry): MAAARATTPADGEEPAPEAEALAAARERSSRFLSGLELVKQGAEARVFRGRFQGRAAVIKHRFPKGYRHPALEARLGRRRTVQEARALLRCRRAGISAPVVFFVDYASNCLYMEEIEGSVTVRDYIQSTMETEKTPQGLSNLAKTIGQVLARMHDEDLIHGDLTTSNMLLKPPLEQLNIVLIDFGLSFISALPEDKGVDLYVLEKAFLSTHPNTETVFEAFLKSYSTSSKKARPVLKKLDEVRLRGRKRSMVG

As a reminder, the IC50 is the midpoint of a concentration-inhibition curve. For `COc1ccccc1-c1n[nH]c2nc(N[C@H]3CC[C@H](NS(=O)(=O)CCC(F)(F)F)CC3)nc(OC)c12` [compound 31, 3,3,3-Trifluoro-N-(trans-4-((4-methoxy-3-(2-methoxyphenyl)-1H-pyrazolo[3,4-d]pyrimidin-6-yl)amino)cyclohexyl)propane-1-sulfonamide], the IC50 at ADK, on CDC42BPA, at CHEK1, at EPHA5, on EPHB4 and at HIPK3 was at least 20 µM in each case. The IC50 was at least 20 µM on LCK; at least 20 µM at MAP3K11; at least 20 µM on MAP4K5; 3 µM on MAPKAPK5; at least 20 µM on MARK2; at least 20 µM on MAST3. Moreover, the IC50 at NTRK1, at PKN1, on PRKCZ, at PRKD3, at PRKDC and on RPS6KA5 was at least 20 µM in each case. The IC50 on SLK, at TEC and at TP53RK was at least 20 µM throughout.
